Tested on: snoring of a treated person
Experiment: anti-snoring effect when applied in the pharynx via the mouth
Type: in vivo
Details: active component; test details not given
Excerpt: The invention provides for this purpose a composition for reducing snoring, comprising at least an active quantity of at least one active component with astringent properties and a physiologically acceptable excipient. Such a composition is preferably applied in the pharynx. […] The composition according to the invention can be applied usefully not only in the domestic domain but also in professional situations where a plurality of people must necessarily sleep in the same space, such as in a dormitory, a hospital or military barracks. […] All formulations are based on water: the shown percentages by weight are thus supplemented to 100% with water. Composition A is a liquid composition which can be used for applying with a spray or as droplets. Composition B is a gel formulation. Composition C is a foam.

SMILES: C[C@@H]1C[C@H]2OC(=O)[C@@]3(C)CCC[C@@](C)([C@@H]23)[C@@]1(O)CCc1ccoc1 [Marrubiin, 6-(2-furan-3-yl-ethyl)-6-hydroxy-2a,5a,7-trimethyldekahydronafto[1,8-bc]furan-2-on]
- anti-snoring effect / effects on the level of snoring of a treated person: particularly good anti-snoring effect

— US8865229B2, “Marrubiin and composition for reducing snoring, package and method” (Puranox Medical B.V., priority 2005, dated 2014)
